US12054498B2, “Heteroaromatic macrocyclic ether chemotherapeutic agents” (Nuvalent, Inc., priority 2020, dated 2024)

Legend:
[1] = molecular target: T1, Ba/F3 cells CD74-ROS1 G2032R (Homo sapiens, UniProt P08922, G2032R); assay: Ba/F3 cell proliferation assay, CD74-ROS1 G2032R; assay type: cell-based; conditions: 72 hours, CellTiter-Glo
T1 construct: fusion of the C-terminus of ROS1 with the N-terminus of various partner proteins; host or cells: Ba/F3 (RIKEN), retroviral pMSCV-puro; the other entry of the earlier key: CD74 (P04233, HLA class II histocompatibility antigen gamma chain)
T1 sequence (P08922 1883-2347 G2032R limits assumed): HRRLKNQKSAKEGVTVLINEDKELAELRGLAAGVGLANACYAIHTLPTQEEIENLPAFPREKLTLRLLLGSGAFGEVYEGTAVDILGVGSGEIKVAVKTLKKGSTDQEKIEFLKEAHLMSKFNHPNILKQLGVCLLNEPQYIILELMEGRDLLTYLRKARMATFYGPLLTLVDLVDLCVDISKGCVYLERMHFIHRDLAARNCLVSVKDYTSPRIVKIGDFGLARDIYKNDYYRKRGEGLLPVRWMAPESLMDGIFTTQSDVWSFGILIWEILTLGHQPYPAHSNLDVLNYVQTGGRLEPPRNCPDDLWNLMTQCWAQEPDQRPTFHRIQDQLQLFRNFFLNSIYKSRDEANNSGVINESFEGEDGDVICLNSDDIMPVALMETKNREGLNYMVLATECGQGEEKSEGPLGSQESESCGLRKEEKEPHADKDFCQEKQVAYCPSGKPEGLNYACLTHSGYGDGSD
In short: (§1)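 IL-3-independent Ba/F3 CD74-ROS1 lines, puromycin-selected monoclones; 1,000 cells/well, plated 1 d before dosing; 3-fold serial dilutions, 72 h; CellTiter-Glo luminescence; IC50 by 4-parameter logistic regression.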

ROS1-G2032R = molecular target: T2, ROS1-G2032R (Homo sapiens, UniProt P08922, G2032R); assay: Biochemical kinase assay, ROS1-G2032R kinase domain; conditions: apparent inhibitory constant, Morrison equation; ATP 2 mM in substrate solution; read-out: ROS1-G2032R Ki^app
T2 construct: purchased SignalChem R14-12BG
T2 sequence (P08922 1945-2222 G2032R limits assumed): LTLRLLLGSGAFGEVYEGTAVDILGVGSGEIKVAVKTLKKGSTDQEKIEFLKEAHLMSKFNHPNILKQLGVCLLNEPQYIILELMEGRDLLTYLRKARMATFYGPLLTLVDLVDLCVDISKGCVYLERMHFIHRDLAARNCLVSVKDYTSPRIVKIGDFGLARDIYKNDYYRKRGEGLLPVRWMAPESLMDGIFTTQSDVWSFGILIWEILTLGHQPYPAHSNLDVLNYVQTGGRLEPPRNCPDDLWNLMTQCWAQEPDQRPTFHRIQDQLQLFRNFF
Protocol: (§2) First, 250 nL of compound dissolved in DMSO (100-fold of the desired concentration) was dispensed into a 384-well plate. A 12.5 μL substrate solution containing ATP (2 mM) and fluorogenic phosphorylation substrate AQT0101 (26 μM for ALK and ROS1, AssayQuant) or AQT0104 (26 μM for TRKA, AssayQuant) in buffer (50 mM HEPES pH 7.5, 0.01% Brij-35, 0.5 mM EGTA, 10 mM MgCl2) was added and mixed thoroughly. […] The plate was sealed and read by SpectraMax Paradigm at λ=485 nm every 2 minutes for 120 minutes at 30° C. Initial rates of reaction (v) were calculated from the change in fluorescence intensity over time during the initial, linear portion of the reaction. Finally, apparent inhibitory constants (Ki^app) were determined from regression of v and I (inhibitor concentration) to Morrison Equation (E=enzyme concentration): […]

ROS1-wt = molecular target: T3, ROS1-wt (Homo sapiens, UniProt P08922); assay: Biochemical kinase assay, ROS1-wt kinase domain; conditions: apparent inhibitory constant, Morrison equation; ATP 2 mM in substrate solution; read-out: ROS1-wt Ki^app
T3 construct: purchased Carna 08-163
T3 sequence (P08922 1945-2222 limits assumed): as the sequence (P08922 1945-2222 G2032R limits assumed) above, with R88G counted along it
Protocol: as §2

[2] = system: TPM3-NTRK1-wt IC50 / primary target IC50 (e.g. CD74-ROS1-wt); assay: TRKA selectivity in Ba/F3 cells (TRKA potency divided by primary target potency); assay type: cell-based; conditions: for TPM3-NTRK1-wt/CD74-ROS1-G2032R selectivity ratio: TRKA potency / CD74-ROS1-G2032R potency; for TPM3-NTRK1-wt/CD74-ROS1-wt selectivity ratio: TRKA potency / CD74-ROS1-wt potency; for TPM3-NTRK1-wt/EML4-ALK-L1196M-G1202R selectivity ratio: TRKA potency / EML4-ALK-L1196M-G1202R potency; for TPM3-NTRK1-wt/EML4-ALK-wt selectivity ratio: TRKA potency / EML4-ALK-wt potency
Protocol: TRKA selectivity was calculated by dividing a compound's TRKA potency by its primary target potency (e.g. TPM3-NTRK1-wt IC50/CD74-ROS1-wt IC50). Compound selectivity can be interpreted by binning ratio values: bin A for very high selectivity, ratio >30-fold; bin B for high selectivity, ratio >10-fold; bin C for moderate selectivity, ratio ≥1; and bin D for low selectivity, ratio <1. […] (nd=not determined).

[3] = molecular target: T4, Ba/F3 cells EML4-ALK wt (variant 1) (Homo sapiens, UniProt Q9UM73); assay: Ba/F3 cell proliferation assay, EML4-ALK wt (variant 1); assay type: cell-based; conditions: 72 hours, CellTiter-Glo
T4 construct: echinoderm microtubule-associated protein-like 4 (EML4) gene and the ALK tyrosine kinase domain; host or cells: Ba/F3 (RIKEN), retroviral pMSCV-puro; the other entry of the earlier key: EML4 (Q9HC35, Echinoderm microtubule-associated protein-like 4)
T4 sequence (Q9UM73 with tags, fused parts or gaps): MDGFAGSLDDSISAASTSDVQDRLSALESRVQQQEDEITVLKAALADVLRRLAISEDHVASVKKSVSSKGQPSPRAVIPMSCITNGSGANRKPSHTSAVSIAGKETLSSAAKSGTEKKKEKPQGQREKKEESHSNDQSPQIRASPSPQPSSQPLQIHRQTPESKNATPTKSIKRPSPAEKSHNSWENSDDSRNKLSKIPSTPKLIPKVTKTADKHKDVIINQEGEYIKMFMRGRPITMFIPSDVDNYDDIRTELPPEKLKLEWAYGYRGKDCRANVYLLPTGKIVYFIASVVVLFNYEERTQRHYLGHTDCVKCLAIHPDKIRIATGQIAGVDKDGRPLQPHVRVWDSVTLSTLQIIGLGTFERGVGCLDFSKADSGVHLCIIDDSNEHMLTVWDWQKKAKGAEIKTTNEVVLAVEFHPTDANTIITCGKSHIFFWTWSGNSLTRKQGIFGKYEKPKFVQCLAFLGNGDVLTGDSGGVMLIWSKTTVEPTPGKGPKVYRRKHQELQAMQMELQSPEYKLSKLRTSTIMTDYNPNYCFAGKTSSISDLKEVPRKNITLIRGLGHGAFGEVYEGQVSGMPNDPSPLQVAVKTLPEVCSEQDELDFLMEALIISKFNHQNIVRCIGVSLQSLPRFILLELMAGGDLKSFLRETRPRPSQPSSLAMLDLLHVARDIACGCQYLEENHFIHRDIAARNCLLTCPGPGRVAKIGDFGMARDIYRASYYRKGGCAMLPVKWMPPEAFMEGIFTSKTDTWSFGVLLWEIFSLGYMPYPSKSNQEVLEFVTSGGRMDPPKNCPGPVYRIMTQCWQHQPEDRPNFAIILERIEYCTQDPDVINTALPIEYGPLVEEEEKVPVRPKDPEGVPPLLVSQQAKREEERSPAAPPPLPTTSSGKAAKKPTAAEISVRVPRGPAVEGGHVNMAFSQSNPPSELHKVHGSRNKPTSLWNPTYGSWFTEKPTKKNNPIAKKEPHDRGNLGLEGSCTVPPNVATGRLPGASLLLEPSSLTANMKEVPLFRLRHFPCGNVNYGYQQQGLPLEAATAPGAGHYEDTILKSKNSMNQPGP
In short: (§3)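 IC50 values come from four-parameter logistic regression of CellTiter-Glo luminescence after 72 h exposure to 3-fold serial dilutions. Cells are Ba/F3 transformed by retroviral fusion-kinase constructs, grown without IL-3 under puromycin, plated at 1,000 per well a day before dosing.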

[4] = molecular target: T5, Ba/F3 cells CD74-ROS1 wild-type (wt) (Homo sapiens, UniProt P08922); assay: Ba/F3 cell proliferation assay, CD74-ROS1 wild-type; assay type: cell-based; conditions: 72 hours, CellTiter-Glo
T5 construct: fusion of the C-terminus of ROS1 with the N-terminus of various partner proteins; host or cells: Ba/F3 (RIKEN), retroviral pMSCV-puro; the other entry of the earlier key: CD74 (P04233, HLA class II histocompatibility antigen gamma chain)
T5 sequence (P08922 1883-2347 limits assumed): as the sequence (P08922 1883-2347 G2032R limits assumed) above, with R150G counted along it
In short: as §1

ALK-wt = molecular target: T6, ALK-wt (Homo sapiens, UniProt Q9UM73); assay: Biochemical kinase assay, ALK-wt kinase domain; conditions: apparent inhibitory constant, Morrison equation; ATP 2 mM in substrate solution; read-out: ALK-wt Ki^app
T6 construct: purchased Carna 08-518
T6 sequence (Q9UM73 1116-1392 limits assumed): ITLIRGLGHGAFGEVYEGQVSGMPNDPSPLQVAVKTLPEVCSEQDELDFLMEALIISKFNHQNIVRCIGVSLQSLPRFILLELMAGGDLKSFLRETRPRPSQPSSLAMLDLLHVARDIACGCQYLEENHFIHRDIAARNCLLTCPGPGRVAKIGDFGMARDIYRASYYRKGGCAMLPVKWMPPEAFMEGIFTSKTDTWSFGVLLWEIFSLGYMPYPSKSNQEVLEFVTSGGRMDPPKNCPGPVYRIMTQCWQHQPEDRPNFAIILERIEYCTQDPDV
Protocol: (§4) First, 250 nL of compound dissolved in DMSO (100-fold of the desired concentration) was dispensed into a 384-well plate. A 12.5 μL substrate solution containing ATP (2 mM) and fluorogenic phosphorylation substrate AQT0101 (26 μM for ALK and ROS1, AssayQuant) or AQT0104 (26 μM for TRKA, AssayQuant) in buffer (50 mM HEPES pH 7.5, 0.01% Brij-35, 0.5 mM EGTA, 10 mM MgCl2) was added and mixed thoroughly. Then, a 12.5 μL kinase solution containing ALK-wt (1.5 nM, Carna, 08-518), ALK ALK L1196M/G1202R (3 nM, SignalChem, A19-12NG), ROS1-wt (0.6 nM, Carna, 08-163), ROS1-G2032R (0.5 nM, SignalChem, R14-12BG), or TRKA-wt (1 nM, BPS Bio, 40280) kinase domains in buffer ([…] HEPES pH 7.5, 0.01% Brij-35, 2% glycerol, 0.4 mg/mL BSA, 0.5 mM EGTA, and 10 mM MgCl2) was added and mixed thoroughly. The plate was sealed and read by SpectraMax Paradigm at λ=485 nm every 2 minutes for 120 minutes at 30° C. Initial rates of reaction (v) were calculated from the change in fluorescence intensity over time during the initial, linear portion of the reaction. Finally, apparent inhibitory constants (Ki^app) were determined from regression of v and I (inhibitor concentration) to Morrison Equation (E=enzyme concentration): […]

Ba/F3 cells TPM3-TRKA = molecular target: T7, Ba/F3 cells TPM3-TRKA (Homo sapiens, UniProt P04629); assay: Ba/F3 cell proliferation assay, TPM3-TRKA; assay type: cell-based; conditions: 72 hours, CellTiter-Glo, read-out: TPM3-NTRK1-wt IC50
T7 construct: host or cells: Ba/F3 (RIKEN), retroviral pMSCV-puro; the other entry of the earlier key: TPM3 (P06753, Tropomyosin alpha-3 chain)
T7 sequence (P04629 510-796 limits assumed): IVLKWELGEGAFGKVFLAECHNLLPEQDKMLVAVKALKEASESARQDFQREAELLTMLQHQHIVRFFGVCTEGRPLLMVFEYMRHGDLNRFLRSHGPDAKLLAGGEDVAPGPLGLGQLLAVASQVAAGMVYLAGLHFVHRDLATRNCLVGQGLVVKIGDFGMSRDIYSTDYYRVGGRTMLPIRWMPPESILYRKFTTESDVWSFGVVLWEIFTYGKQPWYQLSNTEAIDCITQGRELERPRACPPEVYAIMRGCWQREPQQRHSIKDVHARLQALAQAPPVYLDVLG
In short: as §3

TRKA-wt = molecular target: T8, TRKA-wt (Homo sapiens, UniProt P04629); assay: Biochemical kinase assay, TRKA-wt kinase domain; conditions: apparent inhibitory constant, Morrison equation; ATP 2 mM in substrate solution; read-out: TRKA-wt Ki^app
T8 construct: or TRKA-wt (1 nM, BPS Bio, 40280) kinase domains in buffer; purchased BPS Bio 40280
T8 sequence (P04629 510-781 limits assumed): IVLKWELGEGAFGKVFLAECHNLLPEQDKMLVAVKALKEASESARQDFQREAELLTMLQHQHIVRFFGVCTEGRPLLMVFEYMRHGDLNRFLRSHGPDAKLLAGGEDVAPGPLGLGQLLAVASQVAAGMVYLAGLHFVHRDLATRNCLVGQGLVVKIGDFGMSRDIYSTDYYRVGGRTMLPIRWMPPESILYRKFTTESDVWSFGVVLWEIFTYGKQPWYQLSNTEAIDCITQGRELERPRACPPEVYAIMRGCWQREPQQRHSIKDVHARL
Protocol: as §4

ALK L1196M/G1202R = molecular target: T9, ALK L1196M/G1202R (Homo sapiens, UniProt Q9UM73, G1202R/L1196M); assay: Biochemical kinase assay, ALK L1196M/G1202R kinase domain; conditions: apparent inhibitory constant, Morrison equation; ATP 2 mM in substrate solution; read-out: ALK-L1196M-G1202R Ki^app
T9 construct: purchased SignalChem A19-12NG
T9 sequence (Q9UM73 1116-1392 L1196M/G1202R limits assumed): as the sequence (Q9UM73 1116-1392 limits assumed) above, with L81M, G87R counted along it
Protocol: as §4

[5] = molecular target: T10, Ba/F3 cells EML4-ALK L1196M/G1202R (variant 1) (Homo sapiens, UniProt Q9UM73, G1202R/L1196M); assay: Ba/F3 cell proliferation assay, EML4-ALK L1196M/G1202R (variant 1); assay type: cell-based; conditions: 72 hours, CellTiter-Glo
T10 construct: echinoderm microtubule-associated protein-like 4 (EML4) gene and the ALK tyrosine kinase domain; host or cells: Ba/F3 (RIKEN), retroviral pMSCV-puro; the other entry of the earlier key: EML4 (Q9HC35, Echinoderm microtubule-associated protein-like 4)
T10 sequence (Q9UM73 with tags, fused parts or gaps L1196M/G1202R): as the sequence (Q9UM73 with tags, fused parts or gaps) above, with L635M, G641R counted along it
In short: as §3

IC50 [1] [nM]	Ki (ROS1-G2032R) [nM]	Ki (ROS1-wt) [nM]	IC50 [3] [nM]	IC50 [4] [nM]	Ki (ALK-wt) [nM]	IC50 (Ba/F3 cells TPM3-TRKA) [nM]	Ki (TRKA-wt) [nM]	Ki (ALK L1196M/G1202R) [nM]	IC50 [5] [nM]	SMILES	TPM3-NTRK1-wt/CD74-ROS1-G2032R selectivity ratio [2]	TPM3-NTRK1-wt/CD74-ROS1-wt selectivity ratio [2]	TPM3-NTRK1-wt/EML4-ALK-L1196M-G1202R selectivity ratio [2]	TPM3-NTRK1-wt/EML4-ALK-wt selectivity ratio [2]
0.1 to 50	50 to 500	< 50	0.1 to 50	0.1 to 50	< 50	> 500	> 500	< 50	50 to 500	C[C@H]1Oc2cc(cnc2N)-c2c(cnn2C2CCC2)Cn2nncc2-c2ccc(F)cc21 [Example 7, (19R)-3-cyclobutyl-16-fluoro-19-methyl-20-oxa-3,4,8,9,10,23-hexaazapentacyclo[19.3.1.0^2,^6.0^8,^12.0^13,^18]pentacosa-1(24),2(6),4,9,11,13,15,17,21(25),22-decaen-22-amine]	A (bin A for very high selectivity, ratio >30-fold)	A (bin A for very high selectivity, ratio >30-fold)	B (bin B for high selectivity, ratio >10-fold)	A (bin A for very high selectivity, ratio >30-fold)
0.1 to 50	< 50	< 50	0.1 to 50	0.1 to 50	< 50	> 500	50 to 500	< 50	0.1 to 50	CCn1ncc2c1-c1cnc(N)c(c1)O[C@H](C)c1cc(F)ccc1-c1cn(C)nc1C2 [Example 9, (19R)-3-ethyl-16-fluoro-10,19-dimethyl-20-oxa-3,4,9,10,23-pentaazapentacyclo[19.3,1.0^2,^6.0^8,^12.0^13,^18]pentacosa-1(24),2(6),4,8,11,13,15,17,21 (25),22-decaen-22-amine]	A (bin A for very high selectivity, ratio >30-fold)	A (bin A for very high selectivity, ratio >30-fold)	B (bin B for high selectivity, ratio >10-fold)	A (bin A for very high selectivity, ratio >30-fold)
0.1 to 50	< 50	< 50	–	–	< 50	50 to 500	50 to 500	< 50	0.1 to 50	CCn1ncc2c1-c1cnc(N)c(c1)O[C@H](C)c1cc(F)ccc1-c1nccnc1C2 [Example 36, (20R)-3-ethyl-17-fluoro-20-methyl-21-oxa-3,4,9,12,24-pentaazapentacyclo[20.3.1.0^2,^6.0^8,^13.0^14,^19]hexacosa-1(25),2(6),4,8(13),9,11,14,16,18,22(26),23-undecaen-23-amine]	A (bin A for very high selectivity, ratio >30-fold)	–	B (bin B for high selectivity, ratio >10-fold)	–
